Patent US20230295115A1, “SUBSTITUTED ISOQUINOLINYLMETHYL AMIDES, ANALOGUES THEREOF, AND METHODS USING SAME” (priority 2020, published 2023)

Tested on: HBV rcDNA
Assay: HepDE19 assay with bDNA quantitation of HBV rcDNA
Type: cell-based, hepatitis B virus (HBV)
Conditions: HepDE19 cells, 7 day incubation, rcDNA measured by Quantigene 2.0 bDNA assay, top concentration 25 μM; read-out: DE-19bDNA EC50
Procedure, shortened: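 HepDE19 cells were switched to tetracycline-free medium and exposed to compound (0.5% DMSO final) for 7 days at 37° C. rcDNA was then quantified by bDNA with an HBV-specific probe set. In parallel, viability was read as ATP content (CellTiter-Glo) after 4 days on replicate plates.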

First: CC(c1c[nH]c(=O)c2cc(F)c(F)cc12)N(C)C(=O)c1ccc2c(ccn2C)c1 (single isomer, unassigned) [Compound 139, N-(1-(6,7-difluoro-1-oxo-1,2-dihydroisoquinolin-4-yl)ethyl)-N,1-dimethyl-1H-indole-5-carboxamide]
Second: CC(c1c[nH]c(=O)c2cc(F)c(F)cc12)N(C)C(=O)c1cc2ccccc2n1C (single isomer, unassigned) [Compound 43, N-(1-(6,7-Difluoro-1-oxo-1,2-dihydroisoquinolin-4-yl)ethyl)-N,1-dimethyl-1H-indole-2-carboxamide]
The EC50 of the first is higher: greater than 25 µM for the first, 4.3 µM for the second. The second is the more potent here.

Compared with `COc1ncc(C(C)N(C)C(=O)c2cc3cc(F)c(F)cc3[nH]2)c2cc(F)c(F)cc12` (single isomer, unassigned) [Compound 169, N-(1-(6,7-Difluoro-1-methoxyisoquinolin-4-yl)ethyl)-5,6-difluoro-N-methyl-1H-indole-2-carboxamide], `CC(c1c[nH]c(=O)c2cc(F)c(F)cc12)N(C)C(=O)c1cc2c(F)cc(F)cc2[nH]1` (single isomer, unassigned) [Compound 18, N-(1-(6,7-Difluoro-1-oxo-1,2-dihydroisoquinolin-4-yl)ethyl)-4,6-difluoro-N-methyl-1H-indole-2-carboxamide] is 6.5-fold lower in EC50: 0.13 µM for the first, 0.02 µM for the second. The second is the more potent here.

Going from `CC(c1c[nH]c(=O)c2cc(F)c(F)cc12)N(C)C(=O)c1ccc(Cl)c(F)c1` (single isomer, unassigned) [Compound 121, 4-Chloro-N-(1-(6,7-difluoro-1-oxo-1,2-dihydroisoquinolin-4-yl)ethyl)-3-fluoro-N-methylbenzamide] to `CC(c1c[nH]c(=O)c2cc(F)c(F)cc12)N(C)C(=O)c1cc2ccc(F)cn2c1` (single isomer, unassigned) [Compound 103, N-(1-(6,7-Difluoro-1-oxo-1,2-dihydroisoquinolin-4-yl)ethyl)-6-fluoro-N-methylindolizine-2-carboxamide], the EC50 falls from 5.68 µM to 0.03 µM (190-fold).

First: CC(c1c[nH]c(=O)c2cc(F)c(F)cc12)N(C)C(=O)c1c[nH]c2ccccc12 (single isomer, unassigned) [Compound 53, N-(1-(6,7-Difluoro-1-oxo-1,2-dihydroisoquinolin-4-yl)ethyl)-N-methyl-1H-indole-3-carboxamide]
Second: CC(c1c[nH]c(=O)c2cc(F)c(F)cc12)N(C)C(=O)c1cc2ccccc2o1 (single isomer, unassigned) [Compound 26, N-(1-(6,7-Difluoro-1-oxo-1,2-dihydroisoquinolin-4-yl)ethyl)-N-methylbenzofuran-2-carboxamide]
The EC50 of the first is higher: no less than 25 µM for the first, 0.35 µM for the second.

First: CC(c1c[nH]c(=O)c2cc(F)c(F)cc12)N(CCCO)C(=O)c1[nH]c2ccccc2c1Cl (single isomer, unassigned) [Compound 94, 3-Chloro-N-(1-(6,7-difluoro-1-oxo-1,2-dihydroisoquinolin-4-yl)ethyl)-N-(3-hydroxypropyl)-1H-indole-2-carboxamide]
Second: CCN(C(=O)c1cc2ccccc2[nH]1)C(C)c1c[nH]c(=O)c2cc(F)c(F)cc12 (single isomer, unassigned) [Compound 6, N-(1-(6,7-Difluoro-1-oxo-1,2-dihydroisoquinolin-4-yl)ethyl)-N-ethyl-1H-indole-2-carboxamide]
The EC50 of the first is 1900-fold higher: 19 µM for the first, 0.01 µM for the second.

Going from `CC(c1c[nH]c(=O)c2c(F)c(F)ccc12)N(C)C(=O)C1Nc2ccccc2C1(C)C` (stereo not drawn) [Compound 105, N-(1-(7,8-Difluoro-1-oxo-1,2-dihydroisoquinolin-4-yl)ethyl)-N,3,3-trimethylindoline-2-carboxamide] to `CC(c1c[nH]c(=O)c2c(F)c(F)ccc12)N(C)C(=O)c1cc2c(F)cccn2c1` (single isomer, unassigned) [Compound 82, N-(1-(7,8-Difluoro-1-oxo-1,2-dihydroisoquinolin-4-yl)ethyl)-8-fluoro-N-methylindolizine-2-carboxamide], the EC50 falls from no less than 25 µM to 0.07 µM. The second is the more potent here.

Going from `CC(c1cn(C)c(=O)c2cc(F)c(F)cc12)N(C)C(=O)[C@@H]1Cc2ccccc2N1` (stereo partly drawn) [Compound 184, (2S)-N-(1-(6,7-difluoro-2-methyl-1-oxo-1,2-dihydroisoquinolin-4-yl)ethyl)-N-methylindoline-2-carboxamide] to `CC(c1c[nH]c(=O)c2cc(F)c(F)cc12)N(C)C(=O)c1cn2ccccc2n1` (single isomer, unassigned) [Compound 45, N-(1-(6,7-Difluoro-1-oxo-1,2-dihydroisoquinolin-4-yl)ethyl)-N-methylimidazo[1,2-a]pyridine-2-carboxamide], the EC50 falls from 4.2 µM to 2.5 µM (1.7-fold).

First: CC(c1c[nH]c(=O)c2cc(F)c(F)cc12)N(CCCO)C(=O)c1[nH]c2ccccc2c1Cl (single isomer, unassigned) [Compound 95, 3-Chloro-N-(1-(6,7-difluoro-1-oxo-1,2-dihydroisoquinolin-4-yl)ethyl)-N-(3-hydroxypropyl)-1H-indole-2-carboxamide]
Second: CC(c1c[nH]c(=O)c2cc(F)c(F)cc12)N(C)C(=O)c1cc2c(Cl)cccn2c1 (single isomer, unassigned) [Compound 77, 8-Chloro-N-(1-(6,7-difluoro-1-oxo-1,2-dihydroisoquinolin-4-yl)ethyl)-N-methylindolizine-2-carboxamide]
The EC50 of the first is 5-fold lower: 0.4 µM for the first, 2 µM for the second.

Same assay, conditions: Hepatitis B virus, HepDE19, 168 h, HepDE19 cells, 7 day incubation, rcDNA measured by Quantigene 2.0 bDNA assay, top concentration 25 μM; read-out: DE-19bDNA EC50

Going from `C[C@H](c1c[nH]c(=O)c2ccccc12)N(C)C(=O)c1cc2cc(F)ccn2c1` [Compound 153, (R)-7-Fluoro-N-methyl-N-(1-(1-oxo-1,2-dihydroisoquinolin-4-yl)ethyl)indolizine-2-carboxamide] to `C[C@H](c1c[nH]c(=O)c2ccccc12)N(C)C(=O)c1ccc(C(F)(F)F)cc1` [Compound 147, (R)-N-Methyl-N-(1-(1-oxo-1,2-dihydroisoquinolin-4-yl)ethyl)-4-(trifluoromethyl)benzamide], the EC50 falls from 0.35 µM to 0.16 µM (2.2-fold). The second is the more potent here.

Compared with `C[C@H](c1c[nH]c(=O)c2ccccc12)N(C)C(=O)Cc1ccc(Cl)cc1` [Compound 151, (R)-2-(4-Chlorophenyl)-N-methyl-N-(1-(1-oxo-1,2-dihydroisoquinolin-4-yl)ethyl)acetamide], `CC(C)CN(C(=O)c1cc2ccccn2c1)C(C)c1c[nH]c(=O)c2cc(F)c(F)cc12` (racemic) [Compound 116, N-(1-(6,7-Difluoro-1-oxo-1,2-dihydroisoquinolin-4-yl)ethyl)-N-isobutylindolizine-2-carboxamide] is 44-fold lower in EC50: 3.54 µM for the first, 0.08 µM for the second. The second is the more potent here.

First: CC(c1c[nH]c(=O)c2cc(F)c(F)cc12)N(C)C(=O)C(=O)NC1CC1 (racemic) [Compound 143, N1-Cyclopropyl-N2-(1-(6,7-difluoro-1-oxo-1,2-dihydroisoquinolin-4-yl)ethyl)-N2-methyloxalamide]
Second: CC(c1c[nH]c(=O)c2cc(F)c(F)cc12)N(C)C(=O)c1cc2c(F)c(F)ccc2[nH]1 (racemic) [Compound 29, N-(1-(6,7-Difluoro-1-oxo-1,2-dihydroisoquinolin-4-yl)ethyl)-4,5-difluoro-N-methyl-1H-indole-2-carboxamide]
The EC50 of the first is higher: no less than 25 µM for the first, 0.04 µM for the second.

With `CC(C)CN(C(=O)c1ccc(C(F)(F)F)c(F)c1)C(C)c1c[nH]c(=O)c2cc(F)c(F)cc12` (racemic) [Compound 117, N-(1-(6,7-Difluoro-1-oxo-1,2-dihydroisoquinolin-4-yl)ethyl)-3-fluoro-N-isobutyl-4-(trifluoromethyl)benzamide] the EC50 was 0.24 µM.

Same assay, conditions: Hepatitis B virus, HepDE19, 168 h, read-out: DE-19bDNA EC50 (μM), HepDE19 cells, 7 day incubation, rcDNA measured by Quantigene 2.0 bDNA assay, top concentration 25 μM

Compound `C[C@H](c1c[nH]c(=O)c2c(F)c(F)ccc12)N(C)C(=O)c1cccc(=O)[nH]1` [Compound 87, (R)-N-(1-(7,8-Difluoro-1-oxo-1,2-dihydroisoquinolin-4-yl)ethyl)-N-methyl-6-oxo-1,6-dihydropyridine-2-carboxamide] has an EC50 of 18 µM.

Same assay, conditions: read-out: DE-19bDNA EC50; HepDE19 cells, 7 day incubation, rcDNA measured by Quantigene 2.0 bDNA assay, top concentration 25 μM

Going from `COc1ncc(C(C)N(C)C(=O)c2ccc(Br)cc2)c2cc(F)c(F)cc12` (single isomer, unassigned) [Compound 163, 4-Bromo-N-(1-(6,7-difluoro-1-methoxyisoquinolin-4-yl)ethyl)-N-methylbenzamide] to `CC(c1c[nH]c(=O)c2cc(F)c(F)cc12)N(C)C(=O)c1cc2cccnc2[nH]1` (single isomer, unassigned) [Compound 52, N-(1-(6,7-Difluoro-1-oxo-1,2-dihydroisoquinolin-4-yl)ethyl)-N-methyl-1H-pyrrolo[2,3-b]pyridine-2-carboxamide], the EC50 rises from 0.44 µM to no less than 25 µM.

First: CC(c1c[nH]c(=O)c2cc(F)c(F)cc12)N(CCCO)C(=O)Cc1cc2ccccc2[nH]1 (single isomer, unassigned) [Compound 83, N-(1-(6,7-Difluoro-1-oxo-1,2-dihydroisoquinolin-4-yl)ethyl)-N-(3-hydroxypropyl)-2-(1H-indol-2-yl)acetamide]
Second: CC(c1c[nH]c(=O)c2cc(F)c(F)cc12)N(C)C(=O)c1cc2cc(F)ccc2[nH]1 (single isomer, unassigned) [Compound 10, N-(1-(6,7-Difluoro-1-oxo-1,2-dihydroisoquinolin-4-yl)ethyl)-5-fluoro-N-methyl-1H-indole-2-carboxamide]
The EC50 of the first is higher: no less than 25 µM for the first, 0.02 µM for the second.

Compared with `CC(c1c[nH]c(=O)c2cc(F)c(F)cc12)N(CCCO)C(=O)Cc1cc2ccccc2[nH]1` (single isomer, unassigned) [Compound 84, N-(1-(6,7-Difluoro-1-oxo-1,2-dihydroisoquinolin-4-yl)ethyl)-N-(3-hydroxypropyl)-2-(1H-indol-2-yl)acetamide], `CC(c1c[nH]c(=O)c2cc(F)c(F)cc12)N(C)C(=O)c1cc2cc(F)ccc2[nH]1` (single isomer, unassigned) [Compound 9, N-(1-(6,7-Difluoro-1-oxo-1,2-dihydroisoquinolin-4-yl)ethyl)-5-fluoro-N-methyl-1H-indole-2-carboxamide] is 3.8-fold higher in EC50: 0.42 µM for the first, 1.6 µM for the second. The first is the more potent here.
